Measurements published in patent publication US20060069132A1, “Azolecarboxamide herbicides” (priority 2004, published 2006).

Experiments:
[1] = test system: small flower umbrella sedge; assay: Test B flooded paddy test; format: in vivo, Cyperus difformis; details: 1000 g ai/ha, visual rating, scale 0 to 100 (0 no effect, 100 complete control), 13 to 15 days
Summary of the method: (§1)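 Visual control ratings, 0–100 versus untreated controls, taken after 13 to 15 days in the greenhouse. Blackgrass received a postemergence spray at the 1- to 4-leaf stage (2–18 cm); ducksalad, umbrella sedge and barnyardgrass were flooded-paddy treated at 2 leaves.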

wild oat = assay: Test B postemergence herbicide test; format: in vivo, Avena fatua; details: scale 0 (no effect) to 100 (complete control); for Plant response rating, Oat, Wild: Postemergence, 500 g ai/ha, visual rating after 13 to 15 days; for Oat, Wild plant response rating: postemergence, 125 g ai/ha, visual rating
Summary of the method: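 Visual ratings, 0 (no effect) to 100 (complete control), made versus controls after 13–15 d greenhouse. Paddy plants treated at 2-leaf stage; postemergence plants at 1- to 4-leaf stage, 2–18 cm tall.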

giant foxtail = assay: Test B pre-/postemergence herbicide test; format: in vivo, Setaria faberi
Summary of the method: (§2)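 Evaluation is visual, comparing treated with control plants on a scale where 0 means no effect and 100 means full control. Treatments were preemergence, or postemergence on seedlings 2–18 cm tall, and held 13–15 days in the greenhouse.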

rice = assay: Test B flooded paddy test; format: in vivo, Oryza sativa; details: 1000 g ai/ha, visual rating, scale 0 to 100 (0 no effect, 100 complete control), 13 to 15 days
Summary of the method: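 Each value is a visual 0–100 response rating taken against controls 13 to 15 days after treatment in the greenhouse. Plants received formulated chemical postemergence at the 1- to 4-leaf stage or, in flooded paddy, at the 2-leaf stage.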

lambsquarters = assay: Test B pre-/postemergence herbicide test; format: in vivo, Chenopodium album; details: for Lambsquarters plant response rating: postemergence, visual rating
Summary of the method: as §2

corn = assay: Test B pre-/postemergence herbicide test; format: in vivo, Zea mays
Summary of the method: as §2

barnyardgrass [2] = assay: Test B pre-/postemergence herbicide test; format: in vivo, Echinochloa crus-galli
Summary of the method: (§3)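 Response was scored visually 13 to 15 days after treatment against untreated greenhouse controls, 0 meaning no effect and 100 complete control. Formulations (solvent mixture plus surfactant) went onto soil after planting, onto foliage of 1- to 4-leaf plants, and onto 2-leaf plants in a flooded paddy set including rice and barnyardgrass.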

pigweed = assay: Test B pre-/postemergence herbicide test; format: in vivo, Amaranthus retroflexus; details: for Pigweed plant response rating: postemergence, visual rating
Summary of the method: as §2

barnyardgrass [3] = assay: Test B flooded paddy test; format: in vivo, Echinochloa crus-galli; details: 1000 g ai/ha, visual rating, scale 0 to 100 (0 no effect, 100 complete control), 13 to 15 days
Summary of the method: as §1

large crabgrass = assay: Test B pre-/postemergence herbicide test; format: in vivo, Digitaria sanguinalis
Summary of the method: as §2

cocklebur = assay: Test B pre-/postemergence herbicide test; format: in vivo, Xanthium strumarium
Summary of the method: as §3

velvetleaf = assay: Test B pre-/postemergence herbicide test; format: in vivo, Abutilon theophrasti; details: for Velvetleaf plant response rating: postemergence, visual rating
Summary of the method: as §2

morningglory = assay: Test B pre-/postemergence herbicide test; format: in vivo, Ipomoea coccinea; details: for Morningglory plant response rating: postemergence, visual rating
Summary of the method: as §3

ducksalad = assay: Test B flooded paddy test; format: in vivo, Heteranthera limosa; details: 1000 g ai/ha, visual rating, scale 0 to 100 (0 no effect, 100 complete control), 13 to 15 days
Summary of the method: as §1

blackgrass = assay: Test B postemergence herbicide test; format: in vivo, Alopecurus myosuroides; details: scale 0 (no effect) to 100 (complete control); for Plant response rating, Blackgrass: Postemergence, 500 g ai/ha, visual rating after 13 to 15 days; for Blackgrass plant response rating: postemergence, 125 g ai/ha, visual rating
Summary of the method: as §1

[4] = Postemergence, 500 g ai/ha, visual rating after 13 to 15 days, scale 0 (no effect) to 100 (complete control)
[5] = Preemergence, 500 g ai/ha, scale 0 to 100
[6] = postemergence, 125 g ai/ha, visual rating, scale 0 (no effect) to 100 (complete control)
[7] = preemergence, 125 g ai/ha, 0 to 100 scale, 0 is no effect, 100 is complete control
[8] = 125 g ai/ha, scale 0 (no effect) to 100 (complete control)
[9] = 500 g ai/ha, visual rating 0-100, 0 no effect, 100 complete control, preemergence

Structure (SMILES): C=CCOC(=O)c1cccc(NC(=O)c2cc(C(C)(C)C)nn2CC)c1 [Compound 85]
- Sedge, Umbrella plant response rating [1]: 60
- Plant response rating, Oat, Wild (wild oat): 50
- Oat, Wild plant response rating (wild oat): 20
- Plant response rating, Foxtail, Giant (giant foxtail; [4]): 50
- Foxtail, Giant plant response rating (giant foxtail; [5]): 0
- Foxtail, Giant plant response rating (giant foxtail; [6]): 20
- Plant response rating, Foxtail, Giant (giant foxtail; [7]): 0
- Rice plant response rating (rice): 40
- Plant response rating, Lambsquarters (lambsquarters; [4]): 60
- Lambsquarters plant response rating (lambsquarters; [8]): 50
- Plant response rating, Lambsquarters (lambsquarters; [7]): 0
- Plant response rating, Corn (corn; [4]): 30
- Corn plant response rating (corn; [5]): 0
- Corn plant response rating (corn; [6]): 20
- Plant response rating, Corn (corn; [7]): 0
- Plant response rating, Barnyardgrass (barnyardgrass [2]; [4]): 80
- Barnyardgrass plant response rating (barnyardgrass [2]; [5]): 0
- Barnyardgrass plant response rating (barnyardgrass [2]; [6]): 60
- Plant response rating, Barnyardgrass (barnyardgrass [2]; [7]): 0
- Plant response rating, Pigweed (pigweed; [4]): 100
- Pigweed plant response rating (pigweed; [8]): 100
- Plant response rating, Pigweed (pigweed; [7]): 0
- Barnyardgrass plant response rating (barnyardgrass [3]): 40
- Plant response rating, Crabgrass, Large (large crabgrass; [4]): 80
- Crabgrass, Large plant response rating (large crabgrass; [5]): 0
- Crabgrass, Large plant response rating (large crabgrass; [6]): 50
- Plant response rating, Crabgrass, Large (large crabgrass; [7]): 0
- Plant response rating, Cocklebur (cocklebur; [4]): 100
- Cocklebur plant response rating (cocklebur; [5]): 0
- Cocklebur plant response rating (cocklebur; [6]): 90
- Plant response rating, Cocklebur (cocklebur; [7]): 0
- Plant response rating, Velvetleaf (velvetleaf; [4]): 80
- Velvetleaf plant response rating (velvetleaf; [8]): 60
- Plant response rating, Velvetleaf (velvetleaf; [7]): 0
- Plant response rating, Morningglory (morningglory; [4]): 100
- Morningglory plant response rating (morningglory; [8]): 50
- Plant response rating, Morningglory (morningglory; [7]): 0
- Ducksalad plant response rating (ducksalad): 20
- Plant response rating, Blackgrass (blackgrass): 20
- Blackgrass plant response rating (blackgrass): 10

Structure (SMILES): CC(=NO)c1cccc(NC(=O)c2cc(C(C)(C)C)nn2C)c1 [Compound 102]
- Sedge, Umbrella plant response rating [1]: 100
- Plant response rating, Oat, Wild (wild oat): 40
- Oat, Wild plant response rating (wild oat): 20
- Plant response rating, Foxtail, Giant (giant foxtail; [9]): 80
- Plant response rating, Foxtail, Giant (giant foxtail; [4]): 30
- Foxtail, Giant plant response rating (giant foxtail; [6]): 10
- Plant response rating, Foxtail, Giant (giant foxtail; [7]): 30
- Rice plant response rating (rice): 50
- Plant response rating, Lambsquarters (lambsquarters; [9]): 100
- Plant response rating, Lambsquarters (lambsquarters; [4]): 20
- Lambsquarters plant response rating (lambsquarters; [8]): 10
- Plant response rating, Lambsquarters (lambsquarters; [7]): 100
- Plant response rating, Corn (corn; [9]): 50
- Plant response rating, Corn (corn; [4]): 40
- Corn plant response rating (corn; [6]): 20
- Plant response rating, Corn (corn; [7]): 0
- Plant response rating, Barnyardgrass (barnyardgrass [2]; [9]): 90
- Plant response rating, Barnyardgrass (barnyardgrass [2]; [4]): 40
- Barnyardgrass plant response rating (barnyardgrass [2]; [6]): 0
- Plant response rating, Barnyardgrass (barnyardgrass [2]; [7]): 80
- Plant response rating, Pigweed (pigweed; [9]): 100
- Plant response rating, Pigweed (pigweed; [4]): 100
- Pigweed plant response rating (pigweed; [8]): 80
- Plant response rating, Pigweed (pigweed; [7]): 90
- Barnyardgrass plant response rating (barnyardgrass [3]): 80
- Plant response rating, Crabgrass, Large (large crabgrass; [9]): 100
- Plant response rating, Crabgrass, Large (large crabgrass; [4]): 70
- Crabgrass, Large plant response rating (large crabgrass; [6]): 10
- Plant response rating, Crabgrass, Large (large crabgrass; [7]): 100
- Plant response rating, Cocklebur (cocklebur; [9]): 0
- Plant response rating, Cocklebur (cocklebur; [4]): 50
- Cocklebur plant response rating (cocklebur; [6]): 30
- Plant response rating, Cocklebur (cocklebur; [7]): 0
- Plant response rating, Velvetleaf (velvetleaf; [9]): 70
- Plant response rating, Velvetleaf (velvetleaf; [4]): 20
- Velvetleaf plant response rating (velvetleaf; [8]): 0
- Plant response rating, Velvetleaf (velvetleaf; [7]): 0
- Plant response rating, Morningglory (morningglory; [9]): 100
- Plant response rating, Morningglory (morningglory; [4]): 30
- Morningglory plant response rating (morningglory; [8]): 10
- Plant response rating, Morningglory (morningglory; [7]): 50
- Ducksalad plant response rating (ducksalad): 90
- Plant response rating, Blackgrass (blackgrass): 20
- Blackgrass plant response rating (blackgrass): 0

Structure (SMILES): CCn1nc(C(C)(C)C)cc1C(=O)Nc1cccc(C(C)=NO)c1 [Compound 108]
- Sedge, Umbrella plant response rating [1]: 90
- Plant response rating, Oat, Wild (wild oat): 50
- Oat, Wild plant response rating (wild oat): 20
- Plant response rating, Foxtail, Giant (giant foxtail; [9]): 100
- Plant response rating, Foxtail, Giant (giant foxtail; [4]): 30
- Foxtail, Giant plant response rating (giant foxtail; [6]): 10
- Plant response rating, Foxtail, Giant (giant foxtail; [7]): 90
- Rice plant response rating (rice): 70
- Plant response rating, Lambsquarters (lambsquarters; [9]): 100
- Plant response rating, Lambsquarters (lambsquarters; [4]): 100
- Lambsquarters plant response rating (lambsquarters; [8]): 90
- Plant response rating, Lambsquarters (lambsquarters; [7]): 100
- Plant response rating, Corn (corn; [9]): 30
- Plant response rating, Corn (corn; [4]): 20
- Corn plant response rating (corn; [6]): 10
- Plant response rating, Corn (corn; [7]): 10
- Plant response rating, Barnyardgrass (barnyardgrass [2]; [9]): 90
- Plant response rating, Barnyardgrass (barnyardgrass [2]; [4]): 70
- Barnyardgrass plant response rating (barnyardgrass [2]; [6]): 10
- Plant response rating, Barnyardgrass (barnyardgrass [2]; [7]): 80
- Plant response rating, Pigweed (pigweed; [9]): 100
- Plant response rating, Pigweed (pigweed; [4]): 100
- Pigweed plant response rating (pigweed; [8]): 80
- Plant response rating, Pigweed (pigweed; [7]): 90
- Barnyardgrass plant response rating (barnyardgrass [3]): 80
- Plant response rating, Crabgrass, Large (large crabgrass; [9]): 100
- Plant response rating, Crabgrass, Large (large crabgrass; [4]): 70
- Crabgrass, Large plant response rating (large crabgrass; [6]): 20
- Plant response rating, Crabgrass, Large (large crabgrass; [7]): 100
- Plant response rating, Cocklebur (cocklebur; [9]): 30
- Plant response rating, Cocklebur (cocklebur; [4]): 90
- Cocklebur plant response rating (cocklebur; [6]): 70
- Plant response rating, Cocklebur (cocklebur; [7]): 10
- Plant response rating, Velvetleaf (velvetleaf; [9]): 100
- Plant response rating, Velvetleaf (velvetleaf; [4]): 70
- Velvetleaf plant response rating (velvetleaf; [8]): 50
- Plant response rating, Velvetleaf (velvetleaf; [7]): 80
- Plant response rating, Morningglory (morningglory; [9]): 70
- Plant response rating, Morningglory (morningglory; [4]): 100
- Morningglory plant response rating (morningglory; [8]): 30
- Plant response rating, Morningglory (morningglory; [7]): 50
- Ducksalad plant response rating (ducksalad): 90
- Plant response rating, Blackgrass (blackgrass): 20
- Blackgrass plant response rating (blackgrass): 0

Structure (SMILES): CC(=NO)c1cccc(NC(=O)c2cc(C(C)(C)C)nn2CC(F)(F)F)c1 [Compound 112]
- Sedge, Umbrella plant response rating [1]: 80
- Plant response rating, Oat, Wild (wild oat): 40
- Oat, Wild plant response rating (wild oat): 40
- Plant response rating, Foxtail, Giant (giant foxtail; [9]): 20
- Plant response rating, Foxtail, Giant (giant foxtail; [4]): 30
- Foxtail, Giant plant response rating (giant foxtail; [6]): 20
- Plant response rating, Foxtail, Giant (giant foxtail; [7]): 10
- Rice plant response rating (rice): 70
- Plant response rating, Lambsquarters (lambsquarters; [9]): 90
- Plant response rating, Lambsquarters (lambsquarters; [4]): 100
- Lambsquarters plant response rating (lambsquarters; [8]): 90
- Plant response rating, Lambsquarters (lambsquarters; [7]): 0
- Plant response rating, Corn (corn; [9]): 0
- Plant response rating, Corn (corn; [4]): 40
- Corn plant response rating (corn; [6]): 40
- Plant response rating, Corn (corn; [7]): 0
- Plant response rating, Barnyardgrass (barnyardgrass [2]; [9]): 70
- Plant response rating, Barnyardgrass (barnyardgrass [2]; [4]): 70
- Barnyardgrass plant response rating (barnyardgrass [2]; [6]): 50
- Plant response rating, Barnyardgrass (barnyardgrass [2]; [7]): 50
- Plant response rating, Pigweed (pigweed; [9]): 90
- Plant response rating, Pigweed (pigweed; [4]): 100
- Pigweed plant response rating (pigweed; [8]): 90
- Plant response rating, Pigweed (pigweed; [7]): 0
- Barnyardgrass plant response rating (barnyardgrass [3]): 50
- Plant response rating, Crabgrass, Large (large crabgrass; [9]): 90
- Plant response rating, Crabgrass, Large (large crabgrass; [4]): 30
- Crabgrass, Large plant response rating (large crabgrass; [6]): 20
- Plant response rating, Crabgrass, Large (large crabgrass; [7]): 20
- Plant response rating, Cocklebur (cocklebur; [9]): 0
- Plant response rating, Cocklebur (cocklebur; [4]): 100
- Cocklebur plant response rating (cocklebur; [6]): 60
- Plant response rating, Cocklebur (cocklebur; [7]): 0
- Plant response rating, Velvetleaf (velvetleaf; [9]): 50
- Plant response rating, Velvetleaf (velvetleaf; [4]): 70
- Velvetleaf plant response rating (velvetleaf; [8]): 30
- Plant response rating, Velvetleaf (velvetleaf; [7]): 0
- Plant response rating, Morningglory (morningglory; [9]): 60
- Plant response rating, Morningglory (morningglory; [4]): 30
- Morningglory plant response rating (morningglory; [8]): 20
- Plant response rating, Morningglory (morningglory; [7]): 0
- Ducksalad plant response rating (ducksalad): 80
- Plant response rating, Blackgrass (blackgrass): 20
- Blackgrass plant response rating (blackgrass): 20
